How the values were obtained:
Test in all cases: radiometric filter-binding kinase assay, Kinase HotSpot
Conditions in all cases: compound 0.5 µM; ATP 10 µM
PLK1 (human) = PLK1 (human) (UniProt P53350)
NEK3 (human) = NEK3 (human) (UniProt P51956)
TXK (human) = TXK (human) (UniProt P42681)
ITK (human) = ITK (human) (UniProt Q08881)
MAPK10 (human) = MAPK10 (human) (UniProt P53779)
MAP3K8 (human) = MAP3K8 (human) (UniProt P41279)
PASK (human) = PASK (human) (UniProt Q96RG2)
TGFBR1 (human) = TGFBR1 (human) (UniProt P36897)
BTK (human) = BTK (human) (UniProt Q06187)
TGFBR2 (human) = TGFBR2 (human) (UniProt P37173)
GRK4 (human) = GRK4 (human) (UniProt P32298)
PBK (human) = PBK (human) (UniProt Q96KB5)
MARK4 (human) = MARK4 (human) (UniProt Q96L34)
TYRO3 (human) = TYRO3 (human) (UniProt Q06418)
NEK6 (human) = NEK6 (human) (UniProt Q9HC98)
YES1 (human) = YES1 (human) (UniProt P07947)
NEK2 (human) = NEK2 (human) (UniProt P51955)
CDK4 CCND3 (human) = CDK4 CCND3 (human) (UniProt P30281+P11802)
RPS6KA1 KD1 KD2 (human) = RPS6KA1 KD1 KD2 (human) (UniProt Q15418)
TNK2 (human) = TNK2 (human) (UniProt Q07912)
HCK (human) = HCK (human) (UniProt P08631)
MYO3B (human) = MYO3B (human) (UniProt Q8WXR4)
PIM3 (human) = PIM3 (human) (UniProt Q86V86)
INSR (human) = INSR (human) (UniProt P06213)
ADRBK2 (human) = ADRBK2 (human) (UniProt P35626)
PRKD1 (human) = PRKD1 (human) (UniProt Q15139)
RPS6KB1 (human) = RPS6KB1 (human) (UniProt P23443)
MAPKAPK3 (human) = MAPKAPK3 (human) (UniProt Q16644)
ULK3 (human) = ULK3 (human) (UniProt Q6PHR2)
IRAK4 (human) = IRAK4 (human) (UniProt Q9NWZ3)
GRK7 (human) = GRK7 (human) (UniProt Q8WTQ7)
OXSR1 (human) = OXSR1 (human) (UniProt O95747)
SIK2 (human) = SIK2 (human) (UniProt Q9H0K1)
FGFR4 (human) = FGFR4 (human) (UniProt P22455)
CHEK1 (human) = CHEK1 (human) (UniProt O14757)
PIM2 (human) = PIM2 (human) (UniProt Q9P1W9)
TAOK1 (human) = TAOK1 (human) (UniProt Q7L7X3)
[1] = biological target: TYK2 JH1 catalytic (human) (UniProt P29597)
NEK11 (human) = NEK11 (human) (UniProt Q8NG66)
MAP2K1 (human) = MAP2K1 (human) (UniProt Q02750)
MAP3K5 (human) = MAP3K5 (human) (UniProt Q99683)
PRKCA (human) = PRKCA (human) (UniProt P17252)

GRK4 (human), sequence (P32298 whole entry, looked up): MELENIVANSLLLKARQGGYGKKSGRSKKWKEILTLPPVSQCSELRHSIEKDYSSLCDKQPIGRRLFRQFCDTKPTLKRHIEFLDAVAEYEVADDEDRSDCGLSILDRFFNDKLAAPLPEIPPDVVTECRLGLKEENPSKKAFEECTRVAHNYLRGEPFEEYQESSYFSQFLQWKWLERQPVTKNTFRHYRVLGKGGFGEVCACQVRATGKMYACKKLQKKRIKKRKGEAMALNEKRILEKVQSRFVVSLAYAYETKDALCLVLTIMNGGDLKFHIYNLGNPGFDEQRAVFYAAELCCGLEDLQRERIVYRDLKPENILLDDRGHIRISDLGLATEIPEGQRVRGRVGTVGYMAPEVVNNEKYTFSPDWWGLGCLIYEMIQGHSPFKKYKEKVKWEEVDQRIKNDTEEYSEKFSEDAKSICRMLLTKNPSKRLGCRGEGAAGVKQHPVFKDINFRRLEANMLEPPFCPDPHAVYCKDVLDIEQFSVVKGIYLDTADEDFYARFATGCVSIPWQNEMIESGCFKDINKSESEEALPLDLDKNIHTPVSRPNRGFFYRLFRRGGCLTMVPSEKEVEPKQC
PRKD1 (human), sequence (Q15139 whole entry, looked up): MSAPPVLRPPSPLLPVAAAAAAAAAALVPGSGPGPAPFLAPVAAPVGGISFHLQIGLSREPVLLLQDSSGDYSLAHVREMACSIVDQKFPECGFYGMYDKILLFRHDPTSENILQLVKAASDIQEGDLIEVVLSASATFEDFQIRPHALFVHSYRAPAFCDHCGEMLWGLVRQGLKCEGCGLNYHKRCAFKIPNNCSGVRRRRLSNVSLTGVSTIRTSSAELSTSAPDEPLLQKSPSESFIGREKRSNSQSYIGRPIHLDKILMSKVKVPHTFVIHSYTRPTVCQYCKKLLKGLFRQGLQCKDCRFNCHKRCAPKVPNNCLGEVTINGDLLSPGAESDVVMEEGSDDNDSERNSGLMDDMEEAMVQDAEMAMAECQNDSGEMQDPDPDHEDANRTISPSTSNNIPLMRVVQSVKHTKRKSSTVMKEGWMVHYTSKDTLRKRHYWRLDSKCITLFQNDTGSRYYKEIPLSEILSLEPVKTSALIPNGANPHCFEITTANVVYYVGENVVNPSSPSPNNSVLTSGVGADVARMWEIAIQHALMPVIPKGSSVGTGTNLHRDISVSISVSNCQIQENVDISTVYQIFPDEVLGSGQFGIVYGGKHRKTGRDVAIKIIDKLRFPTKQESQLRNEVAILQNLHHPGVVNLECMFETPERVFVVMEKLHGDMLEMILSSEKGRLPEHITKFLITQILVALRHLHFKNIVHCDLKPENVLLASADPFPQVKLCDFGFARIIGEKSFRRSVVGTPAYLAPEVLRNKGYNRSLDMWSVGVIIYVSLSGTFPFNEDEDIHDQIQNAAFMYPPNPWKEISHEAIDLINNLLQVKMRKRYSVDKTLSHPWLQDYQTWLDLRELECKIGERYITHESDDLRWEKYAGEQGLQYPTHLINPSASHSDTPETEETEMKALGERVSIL
NEK11 (human), sequence (Q8NG66 whole entry, looked up): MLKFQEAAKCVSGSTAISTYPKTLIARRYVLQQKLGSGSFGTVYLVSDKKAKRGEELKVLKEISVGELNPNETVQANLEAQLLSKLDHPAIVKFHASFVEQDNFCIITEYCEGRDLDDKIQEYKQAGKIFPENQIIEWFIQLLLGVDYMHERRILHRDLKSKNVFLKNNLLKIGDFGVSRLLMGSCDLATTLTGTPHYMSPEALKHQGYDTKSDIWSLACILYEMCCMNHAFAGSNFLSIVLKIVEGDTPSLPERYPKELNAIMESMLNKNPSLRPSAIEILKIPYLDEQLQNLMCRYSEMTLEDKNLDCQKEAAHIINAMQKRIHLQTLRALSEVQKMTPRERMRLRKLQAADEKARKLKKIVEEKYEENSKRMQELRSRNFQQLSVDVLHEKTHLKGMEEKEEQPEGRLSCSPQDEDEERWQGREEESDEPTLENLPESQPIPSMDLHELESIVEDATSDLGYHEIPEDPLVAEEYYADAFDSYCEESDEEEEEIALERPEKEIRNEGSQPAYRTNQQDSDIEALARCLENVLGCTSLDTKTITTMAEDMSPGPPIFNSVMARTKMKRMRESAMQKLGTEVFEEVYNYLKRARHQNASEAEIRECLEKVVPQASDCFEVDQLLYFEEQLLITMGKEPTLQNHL
NEK2 (human), sequence (P51955 whole entry, looked up): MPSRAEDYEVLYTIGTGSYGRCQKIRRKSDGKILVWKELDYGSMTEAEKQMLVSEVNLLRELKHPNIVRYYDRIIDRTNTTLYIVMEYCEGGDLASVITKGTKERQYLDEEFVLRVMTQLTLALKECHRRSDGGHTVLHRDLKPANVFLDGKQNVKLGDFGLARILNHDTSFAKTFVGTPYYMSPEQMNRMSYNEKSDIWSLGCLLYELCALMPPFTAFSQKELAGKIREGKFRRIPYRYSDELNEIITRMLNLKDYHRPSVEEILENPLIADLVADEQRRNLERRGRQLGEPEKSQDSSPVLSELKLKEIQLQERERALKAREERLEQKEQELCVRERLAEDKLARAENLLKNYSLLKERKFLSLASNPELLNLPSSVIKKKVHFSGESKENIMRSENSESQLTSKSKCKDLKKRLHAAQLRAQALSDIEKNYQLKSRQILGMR
FGFR4 (human), sequence (P22455 whole entry, looked up): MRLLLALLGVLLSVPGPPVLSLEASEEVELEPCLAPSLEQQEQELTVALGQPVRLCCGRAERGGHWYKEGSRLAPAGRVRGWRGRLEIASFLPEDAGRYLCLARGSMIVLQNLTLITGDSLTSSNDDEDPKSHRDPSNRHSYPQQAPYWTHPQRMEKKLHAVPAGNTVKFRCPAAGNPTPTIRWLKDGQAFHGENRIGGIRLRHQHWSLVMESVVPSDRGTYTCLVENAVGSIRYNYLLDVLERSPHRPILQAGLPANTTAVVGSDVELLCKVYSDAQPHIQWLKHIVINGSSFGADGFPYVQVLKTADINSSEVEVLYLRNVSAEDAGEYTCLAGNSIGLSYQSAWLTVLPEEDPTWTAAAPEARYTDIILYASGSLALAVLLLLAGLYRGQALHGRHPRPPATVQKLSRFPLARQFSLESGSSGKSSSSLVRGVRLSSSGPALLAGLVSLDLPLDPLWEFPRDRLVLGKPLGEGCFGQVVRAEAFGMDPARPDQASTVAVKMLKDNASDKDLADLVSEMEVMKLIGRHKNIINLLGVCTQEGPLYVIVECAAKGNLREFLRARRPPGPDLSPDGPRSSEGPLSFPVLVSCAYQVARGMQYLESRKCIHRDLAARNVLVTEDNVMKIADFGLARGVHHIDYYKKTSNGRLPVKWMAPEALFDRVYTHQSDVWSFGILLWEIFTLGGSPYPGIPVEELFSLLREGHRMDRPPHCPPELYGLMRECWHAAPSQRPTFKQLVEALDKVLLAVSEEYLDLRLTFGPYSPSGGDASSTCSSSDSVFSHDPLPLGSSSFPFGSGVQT
OXSR1 (human), sequence (O95747 whole entry, looked up): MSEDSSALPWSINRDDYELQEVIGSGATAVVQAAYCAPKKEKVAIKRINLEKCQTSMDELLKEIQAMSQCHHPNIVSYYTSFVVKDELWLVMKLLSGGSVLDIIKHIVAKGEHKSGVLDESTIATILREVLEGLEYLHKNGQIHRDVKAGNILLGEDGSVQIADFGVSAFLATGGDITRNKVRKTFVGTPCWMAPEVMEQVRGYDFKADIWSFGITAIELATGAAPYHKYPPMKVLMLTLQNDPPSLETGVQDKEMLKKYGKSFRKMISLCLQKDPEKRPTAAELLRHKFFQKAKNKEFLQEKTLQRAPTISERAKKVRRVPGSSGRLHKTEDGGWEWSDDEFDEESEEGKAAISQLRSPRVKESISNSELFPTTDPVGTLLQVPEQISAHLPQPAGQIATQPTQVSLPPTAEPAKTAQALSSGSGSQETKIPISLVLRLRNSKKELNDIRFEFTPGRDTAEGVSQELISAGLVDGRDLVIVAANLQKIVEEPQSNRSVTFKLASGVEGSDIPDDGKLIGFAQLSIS
NEK3 (human), sequence (P51956 whole entry, looked up): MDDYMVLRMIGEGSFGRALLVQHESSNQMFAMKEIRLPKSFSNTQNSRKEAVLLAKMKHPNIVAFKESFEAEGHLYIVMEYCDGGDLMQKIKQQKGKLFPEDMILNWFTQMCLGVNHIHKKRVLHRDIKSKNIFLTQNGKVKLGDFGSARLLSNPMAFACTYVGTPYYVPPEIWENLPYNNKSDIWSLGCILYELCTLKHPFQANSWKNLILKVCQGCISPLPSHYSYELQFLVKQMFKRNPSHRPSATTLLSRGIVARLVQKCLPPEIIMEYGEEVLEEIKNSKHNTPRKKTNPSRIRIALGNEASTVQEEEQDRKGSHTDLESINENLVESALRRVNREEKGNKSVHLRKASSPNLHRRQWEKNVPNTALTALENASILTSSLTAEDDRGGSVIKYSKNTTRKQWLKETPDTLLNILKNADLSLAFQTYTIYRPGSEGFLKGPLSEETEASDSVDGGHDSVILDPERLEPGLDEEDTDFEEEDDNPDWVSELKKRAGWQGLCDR
RPS6KB1 (human), sequence (P23443 whole entry, looked up): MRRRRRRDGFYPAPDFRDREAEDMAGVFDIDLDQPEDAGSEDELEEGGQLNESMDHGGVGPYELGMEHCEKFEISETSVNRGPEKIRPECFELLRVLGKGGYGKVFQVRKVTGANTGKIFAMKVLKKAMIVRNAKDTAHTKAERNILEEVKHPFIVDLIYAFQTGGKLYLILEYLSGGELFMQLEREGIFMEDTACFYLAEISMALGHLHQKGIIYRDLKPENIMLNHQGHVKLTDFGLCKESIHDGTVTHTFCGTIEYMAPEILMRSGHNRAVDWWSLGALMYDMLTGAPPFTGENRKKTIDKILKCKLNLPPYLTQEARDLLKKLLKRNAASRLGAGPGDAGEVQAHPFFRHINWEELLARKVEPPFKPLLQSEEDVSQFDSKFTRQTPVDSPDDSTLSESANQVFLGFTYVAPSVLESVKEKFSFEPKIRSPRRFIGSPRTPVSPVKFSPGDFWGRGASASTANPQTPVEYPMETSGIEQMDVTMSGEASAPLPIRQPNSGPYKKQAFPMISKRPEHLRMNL

CCOC(=O)c1c(C)[nH]c(/C=C2\C(=O)Nc3ccccc32)c1C
residual activity (PLK1 (human)): 107%
residual activity (NEK3 (human)): 101%
residual activity (TXK (human)): 96.1%
residual activity (ITK (human)): 86.3%
residual activity (MAPK10 (human)): 86.8%
residual activity (MAP3K8 (human)): 108%
residual activity (PASK (human)): 91.4%
residual activity (TGFBR1 (human)): 99.7%
residual activity (BTK (human)): 95.6%
residual activity (TGFBR2 (human)): 101%
residual activity (GRK4 (human)): 82.9%
residual activity (PBK (human)): 85%
residual activity (MARK4 (human)): 99.6%
residual activity (TYRO3 (human)): 96.9%
residual activity (NEK6 (human)): 98.1%
residual activity (YES1 (human)): 68.3%
residual activity (NEK2 (human)): 91.4%
residual activity (CDK4 CCND3 (human)): 106%
residual activity (RPS6KA1 KD1 KD2 (human)): 77.6%
residual activity (TNK2 (human)): 92.7%
residual activity (HCK (human)): 92.6%
residual activity (MYO3B (human)): 74.1%
residual activity (PIM3 (human)): 75.1%
residual activity (INSR (human)): 90.6%
residual activity (ADRBK2 (human)): 94.7%
residual activity (PRKD1 (human)): 91.3%
residual activity (RPS6KB1 (human)): 85.7%
residual activity (MAPKAPK3 (human)): 91.7%
residual activity (ULK3 (human)): 76.7%
residual activity (IRAK4 (human)): 96.8%
residual activity (GRK7 (human)): 86.3%
residual activity (OXSR1 (human)): 87.9%
residual activity (SIK2 (human)): 99.9%
residual activity (FGFR4 (human)): 82.4%
residual activity (CHEK1 (human)): 89.4%
residual activity (PIM2 (human)): 97.7%
residual activity (TAOK1 (human)): 100%
residual activity [1]: 89.9%
residual activity (NEK11 (human)): 96.6%

Cc1ccc(S(=O)(=O)/C=C/C#N)cc1
residual activity (PLK1 (human)): 110%
residual activity (NEK3 (human)): 108%
residual activity (TXK (human)): 103%
residual activity (ITK (human)): 102%
residual activity (MAPK10 (human)): 107%
residual activity (MAP3K8 (human)): 96.2%
residual activity (PASK (human)): 99.3%
residual activity (TGFBR1 (human)): 103%
residual activity (BTK (human)): 94.4%
residual activity (TGFBR2 (human)): 97.9%
residual activity (GRK4 (human)): 96.8%
residual activity (PBK (human)): 83.2%
residual activity (MAP2K1 (human)): 93.9%
residual activity (MARK4 (human)): 99%
residual activity (TYRO3 (human)): 99.8%
residual activity (NEK6 (human)): 108%
residual activity (YES1 (human)): 94.2%
residual activity (NEK2 (human)): 101%
residual activity (CDK4 CCND3 (human)): 100%
residual activity (RPS6KA1 KD1 KD2 (human)): 91.6%
residual activity (TNK2 (human)): 94.9%
residual activity (HCK (human)): 100%
residual activity (PIM3 (human)): 93.6%
residual activity (INSR (human)): 108%
residual activity (MAP3K5 (human)): 100%
residual activity (ADRBK2 (human)): 99.1%
residual activity (PRKD1 (human)): 93.8%
residual activity (RPS6KB1 (human)): 105%
residual activity (MAPKAPK3 (human)): 97.8%
residual activity (IRAK4 (human)): 161%
residual activity (GRK7 (human)): 92.6%
residual activity (OXSR1 (human)): 103%
residual activity (SIK2 (human)): 106%
residual activity (FGFR4 (human)): 94.3%
residual activity (PRKCA (human)): 70.6%
residual activity (CHEK1 (human)): 97.5%
residual activity (PIM2 (human)): 103%
residual activity (TAOK1 (human)): 96.5%
residual activity [1]: 82.8%
residual activity (NEK11 (human)): 95.8%

Oc1cccc(-c2nc(N3CCOCC3)c3oc4ncccc4c3n2)c1
residual activity (PLK1 (human)): 97.9%
residual activity (NEK3 (human)): 92.9%
residual activity (TXK (human)): 94.8%
residual activity (ITK (human)): 93.1%
residual activity (MAPK10 (human)): 102%
residual activity (MAP3K8 (human)): 99.2%
residual activity (PASK (human)): 83.8%
residual activity (TGFBR1 (human)): 95%
residual activity (BTK (human)): 95.2%
residual activity (TGFBR2 (human)): 102%
residual activity (GRK4 (human)): 102%
residual activity (PBK (human)): 88.7%
residual activity (MAP2K1 (human)): 97.7%
residual activity (MARK4 (human)): 93.4%
residual activity (TYRO3 (human)): 102%
residual activity (NEK6 (human)): 106%
residual activity (YES1 (human)): 94.3%
residual activity (NEK2 (human)): 88.6%
residual activity (CDK4 CCND3 (human)): 92.5%
residual activity (RPS6KA1 KD1 KD2 (human)): 79.5%
residual activity (TNK2 (human)): 89.6%
residual activity (HCK (human)): 91.9%
residual activity (MYO3B (human)): 81.3%
residual activity (PIM3 (human)): 104%
residual activity (INSR (human)): 98.6%
residual activity (MAP3K5 (human)): 101%
residual activity (ADRBK2 (human)): 110%
residual activity (PRKD1 (human)): 98.3%
residual activity (RPS6KB1 (human)): 106%
residual activity (MAPKAPK3 (human)): 93.9%
residual activity (ULK3 (human)): 99.7%
residual activity (IRAK4 (human)): 104%
residual activity (GRK7 (human)): 100%
residual activity (OXSR1 (human)): 93.2%
residual activity (SIK2 (human)): 98.9%
residual activity (FGFR4 (human)): 102%
residual activity (PRKCA (human)): 103%
residual activity (PIM2 (human)): 96.9%
residual activity (TAOK1 (human)): 91.6%
residual activity [1]: 73.6%
residual activity (NEK11 (human)): 109%

c1ccc(-c2n[nH]c3c2oc2ccccc23)cc1
residual activity (PLK1 (human)): 106%
residual activity (NEK3 (human)): 98.9%
residual activity (TXK (human)): 81.5%
residual activity (ITK (human)): 80.4%
residual activity (MAPK10 (human)): 93.4%
residual activity (MAP3K8 (human)): 105%
residual activity (PASK (human)): 97.4%
residual activity (TGFBR1 (human)): 94.9%
residual activity (BTK (human)): 96.4%
residual activity (TGFBR2 (human)): 94.1%
residual activity (GRK4 (human)): 110%
residual activity (PBK (human)): 94.8%
residual activity (MAP2K1 (human)): 96.4%
residual activity (MARK4 (human)): 98.2%
residual activity (TYRO3 (human)): 87.6%
residual activity (NEK6 (human)): 99%
residual activity (YES1 (human)): 86.1%
residual activity (NEK2 (human)): 99.8%
residual activity (CDK4 CCND3 (human)): 101%
residual activity (RPS6KA1 KD1 KD2 (human)): 100%
residual activity (TNK2 (human)): 85.8%
residual activity (HCK (human)): 111%
residual activity (PIM3 (human)): 117%
residual activity (INSR (human)): 94.4%
residual activity (MAP3K5 (human)): 97.4%
residual activity (ADRBK2 (human)): 119%
residual activity (PRKD1 (human)): 79.2%
residual activity (RPS6KB1 (human)): 99.9%
residual activity (MAPKAPK3 (human)): 100%
residual activity (IRAK4 (human)): 92.7%
residual activity (GRK7 (human)): 102%
residual activity (OXSR1 (human)): 101%
residual activity (SIK2 (human)): 98.3%
residual activity (FGFR4 (human)): 85.5%
residual activity (PRKCA (human)): 92.9%
residual activity (CHEK1 (human)): 117%
residual activity (PIM2 (human)): 104%
residual activity (TAOK1 (human)): 121%
residual activity [1]: 89.2%
residual activity (NEK11 (human)): 103%

O=c1cc(N2CCOCC2)oc2c1ccc1ccccc12
residual activity (PLK1 (human)): 68.4%
residual activity (NEK3 (human)): 111%
residual activity (TXK (human)): 98.9%
residual activity (ITK (human)): 100%
residual activity (MAPK10 (human)): 73.8%
residual activity (MAP3K8 (human)): 98.3%
residual activity (PASK (human)): 94.9%
residual activity (TGFBR1 (human)): 98.5%
residual activity (BTK (human)): 112%
residual activity (TGFBR2 (human)): 122%
residual activity (GRK4 (human)): 104%
residual activity (PBK (human)): 103%
residual activity (MAP2K1 (human)): 99.3%
residual activity (MARK4 (human)): 102%
residual activity (TYRO3 (human)): 97.3%
residual activity (NEK6 (human)): 92.5%
residual activity (YES1 (human)): 98.7%
residual activity (NEK2 (human)): 94.8%
residual activity (CDK4 CCND3 (human)): 96.8%
residual activity (RPS6KA1 KD1 KD2 (human)): 92%
residual activity (TNK2 (human)): 100%
residual activity (HCK (human)): 114%
residual activity (PIM3 (human)): 95.4%
residual activity (INSR (human)): 92.3%
residual activity (MAP3K5 (human)): 98.2%
residual activity (ADRBK2 (human)): 102%
residual activity (PRKD1 (human)): 102%
residual activity (RPS6KB1 (human)): 99.3%
residual activity (MAPKAPK3 (human)): 105%
residual activity (IRAK4 (human)): 122%
residual activity (GRK7 (human)): 107%
residual activity (OXSR1 (human)): 108%
residual activity (SIK2 (human)): 126%
residual activity (FGFR4 (human)): 108%
residual activity (PRKCA (human)): 89.2%
residual activity (CHEK1 (human)): 104%
residual activity (PIM2 (human)): 78.8%
residual activity (TAOK1 (human)): 97.5%
residual activity [1]: 111%
residual activity (NEK11 (human)): 99.1%
